Measurements published in paper PMC6270290, “Synthesis of Bistetrahydroquinolines as Potential Anticholinesterasic Agents by Double Diels-Alder Reactions” (Molecules, 2013).

Biological target: acetylcholinesterase (AChE) (Electrophorus electricus, UniProt O42275)
Assay: Ellman colorimetric assay, acetylthiocholine hydrolysis
Type: biochemical

Chain of acetylcholinesterase (AChE) (O42275 24-633): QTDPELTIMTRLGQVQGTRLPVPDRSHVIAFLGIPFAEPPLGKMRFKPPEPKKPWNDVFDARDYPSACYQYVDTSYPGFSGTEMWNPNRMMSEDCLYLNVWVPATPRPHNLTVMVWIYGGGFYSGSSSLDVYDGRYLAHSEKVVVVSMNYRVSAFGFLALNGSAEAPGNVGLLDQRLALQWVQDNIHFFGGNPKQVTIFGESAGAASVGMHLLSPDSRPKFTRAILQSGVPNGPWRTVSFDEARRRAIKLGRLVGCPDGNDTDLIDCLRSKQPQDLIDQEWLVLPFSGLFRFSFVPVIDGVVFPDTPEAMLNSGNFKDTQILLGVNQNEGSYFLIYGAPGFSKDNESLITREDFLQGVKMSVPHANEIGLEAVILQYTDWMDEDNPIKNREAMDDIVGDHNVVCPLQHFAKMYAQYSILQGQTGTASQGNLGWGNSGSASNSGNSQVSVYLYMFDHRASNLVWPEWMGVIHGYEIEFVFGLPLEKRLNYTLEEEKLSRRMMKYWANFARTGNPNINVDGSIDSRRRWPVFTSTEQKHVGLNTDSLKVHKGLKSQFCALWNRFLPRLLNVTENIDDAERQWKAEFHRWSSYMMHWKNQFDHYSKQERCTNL

COc1ccc2c(c1)C(N1CCCC1=O)CC(c1cccc(C3CC(N4CCCC4=O)c4cc(OC)ccc4N3)c1)N2 (stereo not shown) [5c, 1,3-bis(6'-Methoxy-4'-(2-oxopyrrolidinyl-1)-1',2',3',4'-tetrahydroquinolin-2-yl)benzene]
IC50: 122 µM
